From PubChem BioAssay AID330 (DTP/NCI, 2004)
“And” between values parts separate entries of the source, which are not always exact repeats. Equal values may be shown once. Inconclusive results and toxic doses are left out. Rule for the calls: active = survival T/C of 150% or more; inactive = T/C below 125% in these data.

Test system: P388 leukemia ip, CD2F1 mice, survival T/C
Assay: NCI In Vivo Anticancer Drug Screen. Data for tumor model P388 Leukemia (intraperitoneal) in CD2F1 (CDF1) mice
Settings: endpoint: median survival time, higher = longer survival
How it was run: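 Mice carrying the transplanted tumor received test compound or vehicle. Survival was recorded in each group, and the value is the treated-group measurement divided by that of the vehicle-treated control group.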

[1] = dose: 60.0 mg/kg/injection, schedule: Q01DX005 (ip), vehicle: saline with Tween-80
[2] = dose: 120.0 mg/kg/injection, schedule: Q01DX005 (ip), vehicle: saline with Tween-80
[3] = dose: 240.0 mg/kg/injection, schedule: Q01DX005 (ip), vehicle: saline with Tween-80
[4] = dose: 60.0 mg/kg/injection, schedule: Q01DX005 (ip), vehicle: Klucel (hydroxypropylcellulose) (HPC)
[5] = dose: 120.0 mg/kg/injection, schedule: Q01DX005 (ip), vehicle: Klucel (hydroxypropylcellulose) (HPC)
[6] = dose: 240.0 mg/kg/injection, schedule: Q01DX005 (ip), vehicle: Klucel (hydroxypropylcellulose) (HPC)
[7] = dose: 100.0 mg/kg/injection, schedule: Q01DX009 (ip), vehicle: Klucel (hydroxypropylcellulose) (HPC)
[8] = dose: 200.0 mg/kg/injection, schedule: Q01DX009 (ip), vehicle: Klucel (hydroxypropylcellulose) (HPC)
[9] = dose: 50.0 mg/kg/injection, schedule: Q01DX005 (ip), vehicle: Klucel (hydroxypropylcellulose) (HPC)
[10] = dose: 100.0 mg/kg/injection, schedule: Q01DX005 (ip), vehicle: Klucel (hydroxypropylcellulose) (HPC)
[11] = dose: 200.0 mg/kg/injection, schedule: Q01DX005 (ip), vehicle: Klucel (hydroxypropylcellulose) (HPC)
[12] = dose: 50.0 mg/kg/injection, schedule: Q01DX005 (ip), vehicle: saline
[13] = dose: 100.0 mg/kg/injection, schedule: Q01DX005 (ip), vehicle: saline
[14] = dose: 200.0 mg/kg/injection, schedule: Q01DX005 (ip), vehicle: saline
[15] = dose: 50.0 mg/kg/injection, schedule: Q01DX009 (ip), vehicle: Klucel (hydroxypropylcellulose) (HPC)

Measured: T/C

O=C(Nc1cc2c3ccccc3ccc2c2ccccc12)C(Cl)Cl
inactive: [1] 100 % of control | [2] 100 % of control | [3] 102 % of control

N#C[S-].N#C[S-].N#C[S-].N#C[S-].[Cr+6].[NH2-].[NH2-]
inactive: dose: 25.0 mg/kg/injection, schedule: Q04DX003 (ip), vehicle: saline 103 % of control | dose: 50.0 mg/kg/injection, schedule: Q04DX003 (ip), vehicle: saline 95 % of control

O=C1C2=C(Nc3ccccc3N2)OC1c1ccncc1 (stereo not given)
inactive: [4] 93 % of control | [5] 93 % of control | [6] 88 % of control

CC(C)(C)C(=O)CC(=O)C(F)(F)C(F)(F)C(F)(F)F.CC(C)(C)C(=O)CC(=O)C(F)(F)C(F)(F)C(F)(F)F.CC(C)(C)C(=O)CC(=O)C(F)(F)C(F)(F)C(F)(F)F.[Er]
inactive: [7] 97 % of control | [8] 95 % of control | dose: 400.0 mg/kg/injection, schedule: Q01DX009 (ip), vehicle: Klucel (hydroxypropylcellulose) (HPC) 112 % of control

CC1(C)C(=O)C(O)=Cc2ccccc21
inactive: [9] 109 % of control | [10] 107 % of control | [11] 101 % of control

O=C(O)CCS(=O)(=O)CCC(=O)O
inactive: dose: 100.0 mg/kg/injection, schedule: Q04DX003 (ip), vehicle: saline with Tween-80 100 % of control | dose: 200.0 mg/kg/injection, schedule: Q04DX003 (ip), vehicle: saline with Tween-80 104 % of control

O=C1c2ccccc2C(=O)N1C(=NCc1ccccc1)c1ccccc1
inactive: dose: 100.0 mg/kg/injection, schedule: Q04DX003 (ip), vehicle: Klucel (hydroxypropylcellulose) (HPC) 104 % of control | dose: 200.0 mg/kg/injection, schedule: Q04DX003 (ip), vehicle: Klucel (hydroxypropylcellulose) (HPC) 104 % of control | dose: 400.0 mg/kg/injection, schedule: Q04DX003 (ip), vehicle: Klucel (hydroxypropylcellulose) (HPC) 109 % of control

COc1ccc(N=NS(=O)(=O)O)cn1
inactive: dose: 3.12 mg/kg/injection, schedule: Q01DX009 (ip), vehicle: saline with Tween-80 93 % of control | dose: 6.25 mg/kg/injection, schedule: Q01DX009 (ip), vehicle: saline with Tween-80 101 % of control | dose: 12.5 mg/kg/injection, schedule: Q01DX009 (ip), vehicle: saline with Tween-80 108 % of control | dose: 25.0 mg/kg/injection, schedule: Q01DX009 (ip), vehicle: saline with Tween-80 97 % of control | dose: 50.0 mg/kg/injection, schedule: Q01DX009 (ip), vehicle: saline with Tween-80 99 % of control and 97 % of control | dose: 100.0 mg/kg/injection, schedule: Q01DX009 (ip), vehicle: saline with Tween-80 94 % of control | dose: 200.0 mg/kg/injection, schedule: Q01DX009 (ip), vehicle: saline with Tween-80 106 % of control | dose: 400.0 mg/kg/injection, schedule: Q01DX009 (ip), vehicle: saline with Tween-80 101 % of control

Cc1ccc(S(=O)(=O)N/N=C2/C(=O)NC(=O)C(=O)C2c2nc3ccccc3s2)cc1 (stereo not given)
inactive: [1] 98 % of control | [2] 92 % of control | [3] 100 % of control

O=S(=O)(CC(O)C(Cl)(Cl)Cl)NNc1ccccc1 (stereo not given)
inactive: dose: 50.0 mg/kg/injection, schedule: Q01DX009 (ip), vehicle: saline 99 % of control | dose: 100.0 mg/kg/injection, schedule: Q01DX009 (ip), vehicle: saline 112 % of control

C/C(=N\OC(=O)c1ccccc1)c1ccccc1
inactive: dose: 100.0 mg/kg/injection, schedule: Q04DX003 (ip), vehicle: saline 102 % of control | dose: 200.0 mg/kg/injection, schedule: Q04DX003 (ip), vehicle: saline 102 % of control | dose: 400.0 mg/kg/injection, schedule: Q04DX003 (ip), vehicle: saline 100 % of control

CCN=C(c1ccc(NC(=O)c2ccc(C(=O)Nc3ccc(C(=NCC)N(CC)CC)cc3)cc2)cc1)N(CC)CC
inactive: dose: 0.39 mg/kg/injection, schedule: Q01DX005 (ip), vehicle: Klucel (hydroxypropylcellulose) (HPC) 102 % of control | dose: 0.78 mg/kg/injection, schedule: Q01DX005 (ip), vehicle: Klucel (hydroxypropylcellulose) (HPC) 100 % of control | dose: 1.56 mg/kg/injection, schedule: Q01DX005 (ip), vehicle: Klucel (hydroxypropylcellulose) (HPC) 101 % of control

Cn1ccc2cc(C3CCCc4c3[nH]c3ccccc43)c(OCc3ccccc3)cc21 (stereo not given)
inactive: dose: 6.25 mg/kg/injection, schedule: Q01DX005 (ip), vehicle: Klucel (hydroxypropylcellulose) (HPC) 99 % of control | dose: 12.5 mg/kg/injection, schedule: Q01DX005 (ip), vehicle: Klucel (hydroxypropylcellulose) (HPC) 97 % of control | dose: 25.0 mg/kg/injection, schedule: Q01DX005 (ip), vehicle: Klucel (hydroxypropylcellulose) (HPC) 97 % of control

CCN(CC)CCNN
inactive: [12] 100 % of control | [13] 100 % of control | [14] 103 % of control

CC(C)CC(N)C(=O)NCCC(=O)O (stereo not given)
inactive: [12] 101 % of control | [13] 101 % of control | [14] 100 % of control

O=C(COc1cccc(Cl)c1)NCc1ccc([N+](=O)[O-])cc1
inactive: dose: 100.0 mg/kg/injection, schedule: Q01DX001 (ip), vehicle: saline with Tween-80 100 % of control | dose: 200.0 mg/kg/injection, schedule: Q01DX001 (ip), vehicle: saline with Tween-80 90 % of control | dose: 400.0 mg/kg/injection, schedule: Q01DX001 (ip), vehicle: saline with Tween-80 100 % of control

N#CC1=C(Nc2ccccc2Cl)SC(c2c(Cl)cccc2Cl)NC1=O (stereo not given)
inactive: [4] 90 % of control | [5] 100 % of control | [6] 93 % of control

CCOC(OCC)/C(=C\N(C)C)N=C(C#N)C#N
inactive: dose: 50.0 mg/kg/injection, schedule: Q01DX005 (ip), vehicle: saline with Tween-80 113 % of control | dose: 100.0 mg/kg/injection, schedule: Q01DX005 (ip), vehicle: saline with Tween-80 111 % of control

O=C(O)/C(Cl)=C(\Cl)C(=O)Nc1cccc([N+](=O)[O-])c1
inactive: dose: 7.5 mg/kg/injection, schedule: Q01DX005 (ip), vehicle: saline with Tween-80 100 % of control | dose: 15.0 mg/kg/injection, schedule: Q01DX005 (ip), vehicle: saline with Tween-80 101 % of control | [1] 100 % of control and 103 % of control | [2] 106 % of control

CCCCCCC(=O)/C=C/c1cc(Cl)cc(Cl)c1O
inactive: [15] 105 % of control | [7] 91 % of control | [8] 101 % of control

CCn1c(Cl)c(/C=C2/N=C(c3ccccc3)OC2=O)c2ccccc21
inactive: dose: 25.0 mg/kg/injection, schedule: Q01DX001 (ip), vehicle: saline with Tween-80 95 % of control | dose: 50.0 mg/kg/injection, schedule: Q01DX001 (ip), vehicle: saline with Tween-80 86 % of control | dose: 100.0 mg/kg/injection, schedule: Q01DX001 (ip), vehicle: Klucel (hydroxypropylcellulose) (HPC) 92 % of control | dose: 400.0 mg/kg/injection, schedule: Q01DX001 (ip), vehicle: Klucel (hydroxypropylcellulose) (HPC) 86 % of control

CC1Cc2ccccc2/C1=N/NC(N)=O (stereo not given)
inactive: [9] 103 % of control | [10] 100 % of control | [11] 99 % of control

CS(=O)(=O)O/C=C1\C(=O)OC2CCCCC12 (stereo not given)
inactive: dose: 18.8 mg/kg/injection, schedule: Q01DX009 (ip), vehicle: distilled water + Tween-80 108 % of control | dose: 37.5 mg/kg/injection, schedule: Q01DX009 (ip), vehicle: distilled water + Tween-80 107 % of control and 116 % of control | dose: 75.0 mg/kg/injection, schedule: Q01DX009 (ip), vehicle: distilled water + Tween-80 116 % of control and 118 % of control | dose: 150.0 mg/kg/injection, schedule: Q01DX009 (ip), vehicle: distilled water + Tween-80 120 % of control

Cc1cc(N/N=C/c2ccc(N(CCCl)CCCl)cc2)c2cc3c(cc2n1)OCO3
inactive: dose: 25.0 mg/kg/injection, schedule: Q04DX003 (ip), vehicle: saline with Tween-80 111 % of control

O=C1NC(c2cccc3ccccc23)Nc2ccc(Cl)cc21 (stereo not given)
inactive: dose: 12.5 mg/kg/injection, schedule: Q01DX009 (ip), vehicle: Klucel (hydroxypropylcellulose) (HPC) 113 % of control | dose: 25.0 mg/kg/injection, schedule: Q01DX009 (ip), vehicle: Klucel (hydroxypropylcellulose) (HPC) 123 % of control | [15] 123 % of control

CNc1ccccc1Sc1cnc(N)nc1C
inactive: [4] 94 % of control | [5] 91 % of control | [6] 90 % of control
